# Test results as given in patent US11237156B2, “Method and composition for detection of peptide cyclization using protein tags” (Roche Sequencing Solutions, Inc., priority 2016, dated 2022).
# No end group written: not given here.
# Legend:
# Cy3 anti-FLAG mouse mAB = experiment: Cyclization tag assay, anti-FLAG binding to peptide microarray; conditions: cyclization tag compared with fragmented control
# Description: (§1) With the matured linear protein tags at hand, the linear peptides were formed on a microarray where the tags were fragmented across the N- and C-terminus of the peptide such that upon cyclization, the complete protein tag is formed. The peptides were split around the low specificity position identified according to Examples 2 and 4 (position 6, for both tags), and that position was substituted with allyl-E (see FIG. 1). A flexible linker (Z) was inserted between the two peptide tag fragments to increase flexibility. Z was a 3:1 mixture of Gly:Ser. The linear peptide sequences are shown in Table 1 for the FLAG- and Myc-based sequenced in the row titled “Cyclization tag.” In addition to the cyclization tags, two controls were compared to each tag. The matured linear sequences identified according to Examples 2 and 4 (shown in Table 1 in the row titled “Linear control”) were formed on the microarray and tested as positive controls. […]
# (§2) Cy3 and Cy5 fluorescence intensity of the arrays was measured with MS200 scanner (Roche NimbleGen) at resolution 2 um, wavelength 532 nm or 635 nm, gain 25% and laser intensity 100%. […]
# Cy5 anti-Myc mouse mAB = experiment: Cyclization tag assay, anti-Myc binding to peptide microarray; conditions: cyclization tag compared with fragmented control
# Description: as §1, §2
# anti-Myc antibody = experiment: Myc sequence maturation binding assay (single substitutions, signal intensity)
# Description: A fragmented protein tag was designed to be specific for the anti-Myc antibody near the N-terminus and C-terminus of the peptide tag, while having low specificity in the middle of the sequence to assist with attachment to a microarray surface through an amino acid side chain. It is to be understood that in some embodiments the amino acid attached to the microarray surface can be near either end of the peptide tag and not necessary closer to the middle of the peptide tag. […] A maturation of the Myc (EQKLISEEDLG (SEQ ID NO: 233)) tag was performed with the tag in the linear form. Each amino acid in the 11 mer peptide was substituted with each of the remaining 19 amino acids. As further described below, the process was repeated until the desired specificity at each position was achieved.
# Referring to FIG. 29, the initial Myc sequence (EQKLISEEDLG (SEQ ID NO: 233)) was modified at positions 1-11 and signal intensity (y-axis) was measured.
# streptavidin-Cy5 = streptavidin-Cy5 (Streptomyces avidinii, UniProt P22629); experiment: Streptavidin-Cy5 binding to cyclic/linear peptide microarray (fluorescence); conditions: for cyclic fluorescent intensity: cyclic subarray
# Experimental: Slides were bound with […] streptavidin-Cy5 in 30 mL binding buffer for 30 minutes at room temperature. Binding buffer contained 1% alkali soluble casein and 0.05% tween-20 in 1×TBS, pH 7.4. After 30 minutes, slides were washed twice in 1×TBS buffer for 1 minute, water for 30 seconds, and spun to dryness.
# Cy5 fluorescence intensity of the arrays was measured with MS200 scanner (Roche NimbleGen) at resolution 2 um, wavelength 635 nm, gain 25% and laser intensity 100%. Cy5 signal intensities were extracted using Image Extraction Software (Roche NimbleGen). Data pre-processing, normalization and statistical tests were done in R. Data visualization and analysis were performed with Spotfire 6.5.0 (Tibco, Boston, Mass.) software platform.
# anti-FLAG antibody = experiment: FLAG-based sequence maturation binding assay (single substitutions, signal intensity); conditions: for signal intensity after single mutation of the precursor sequence: linear tag on microarray, each position substituted with remaining 19 natural amino acids
# Experimental: A fragmented peptide tag was designed to be specific for the anti-FLAG antibody near the N-terminus and C-terminus of the peptide tag, while having low specificity in the middle of the sequence to assist with attachment to a microarray surface through an amino acid side chain. […] A maturation of the FLAG (GDYKDDDDKGG (SEQ ID NO: 232)) tag was performed with the tag in linear form. Each amino acid in the 11 mer peptide was individually substituted with each of the remaining 19 amino acids. As further described below, the process was repeated with modified sequences until the desired specificity at each position was achieved.
# Referring to FIG. 25, the initial FLAG sequence (GDYKDDDDKGG (SEQ ID NO: 232)) was modified at each of positions 1-11 individually with each of the remaining 19 natural amino acids, and signal intensity (y-axis) was measured.
# [1] = single substitution scan of the matured tag
# [2] = extension of HPQ-specific design, all J combinations of JXXHPQXXJU
# Chain of streptavidin-Cy5 (P22629 25-183): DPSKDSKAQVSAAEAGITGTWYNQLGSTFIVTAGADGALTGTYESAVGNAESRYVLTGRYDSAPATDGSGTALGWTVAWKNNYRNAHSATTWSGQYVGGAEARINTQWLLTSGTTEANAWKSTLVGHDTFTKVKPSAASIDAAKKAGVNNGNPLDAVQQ
substance,measurement,setting,value
"DQKGGZZZZWDYKD{allyl-E} (DQKGGXXXXWDYKDE; not fully specified (residue 15); printed as DQKGGZZZZWDYKD{allyl-E}; also: X6-X9: Gly or Ser mixture) [FLAG cyclization tag, fragmented FLAG-based tag on microarray, Z = 3:1 mixture of Gly:Ser, cyclized via allyl-E]",median fluorescence,Cy3 anti-FLAG mouse mAB,higher than that of the fragmented control peptides
"EEDWGZZZZEQKLI{allyl-E} (EEDWGXXXXEQKLIE; not fully specified (residue 15); printed as EEDWGZZZZEQKLI{allyl-E}; also: X6-X9: Gly or Ser mixture) [Myc cyclization tag, fragmented Myc-based tag on microarray, Z = 3:1 mixture of Gly:Ser, cyclized via allyl-E]",median fluorescence,Cy5 anti-Myc mouse mAB,higher than that of the fragmented control peptides
EQKLISEEDWG [L10W-Myc tag],signal intensity after single mutation of the precursor sequence,"anti-Myc antibody; linear tag on microarray, positions 1-11 modified",strongest increase in signal intensity
same,specificity by sequence position for the anti-Myc antibody,anti-Myc antibody; [1],strong specificity on the N-terminus (position 1-5) and moderate specificity on the C-terminus
LYDHPQNGGU (cyclo(LYDHPQNGGE); also: Glu10 surface-linked) [cylic LYDHPQNGGU],cyclic fluorescent intensity,streptavidin-Cy5; [2],highest cyclic intensity
NQpWU [cylic NQpWU],cyclic fluorescent intensity,streptavidin-Cy5; peptide library of format XXXXU,highest cyclic fluorescent intensity
QNDHPQNGGU (cyclo(QNDHPQNGGE); also: Glu10 surface-linked) [cyclic QNDHPQNGGU],log fold change (log FC) between cyclic and linear fluorescent intensity,"streptavidin-Cy5; extension of HPQ-specific design, JXXHPQXXJU",high log FC
same,cyclic fluorescent intensity,streptavidin-Cy5; [2],high cyclic intensity
WDYKDDDDKGG [G1W-FLAG tag],signal intensity after single mutation of the precursor sequence,anti-FLAG antibody,strongest increase in signal intensity
"WDYKDFDDKGG [G1W, D6F-FLAG tag, G1W-FLAG tag with position 6 mutated to phenylalanine]",signal intensity after single mutation of the precursor sequence,anti-FLAG antibody,strongest increase in signal intensity
"WDYKDFDQKGG [G1W, D6F, D8Q-FLAG tag, matured FLAG tag, position 8 mutated to glutamine]",specificity by sequence position for the anti-FLAG antibody,anti-FLAG antibody; [1],specificity for the anti-FLAG antibody on the N-terminus (position 1-4) and the C-terminus (position 7-8)
